Assay results reported in BigSolDB 2.1.

Settings: in NMP

CC(C)Oc1ccc2c(=O)c(-c3ccccc3)coc2c1
Settings	solubility (mole fraction)
278.15 K	0.0605
283.15 K	0.0683
288.15 K	0.078
293.15 K	0.0892
298.15 K	0.101
303.15 K	0.113
308.15 K	0.129
313.15 K	0.146
318.15 K	0.165
323.15 K	0.186
